In PubChem BioAssay (NCI) one finds GI50 and TGI data, which are given here for seven molecules.

Among the test systems are CCRF-CEM leukemia; HCT-116 colon; HL-60(TB) leukemia; HOP-62 NSCLC; HS 578T breast; HT29 colon; K-562 leukemia; NCI-H460 lung; SF-268 CNS; SNB-75 CNS.
Assay in all cases: growth of human tumour cells (NCI), 48 h

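All cell lines were grown in 96-well plates and treated with compound for 48 hours. The concentration for 50% growth inhibition is given as GI50. TGI is the concentration that stops growth completely.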 Some results are limits rather than exact numbers.

With `CNCc1ccc(-c2[nH]c3cc(F)cc4c3c2CCNC4=O)cc1`, the GI50 was 25.6 µM in the assay on CCRF-CEM leukemia; 13.1 µM with HCT-116 colon; 20.9 µM with HL-60(TB) leukemia; 14.9 µM in the assay with HOP-62 NSCLC; 19.5 µM in the assay on HS 578T breast; 19.5 µM with HT29 colon. In addition, the GI50 in the assay on K-562 leukemia was 18 µM; in the assay on NCI-H460 lung it was 14.9 µM; in the assay on SF-268 CNS, 22.8 µM; in the assay with SNB-75 CNS it was 9.49 µM. In addition, the TGI in the assay with CCRF-CEM leukemia is over 93 µM; in the assay on HCT-116 colon, 38.6 µM; in the assay with HL-60(TB) leukemia, 41.3 µM; with HOP-62 NSCLC, 43.4 µM; in the assay with HS 578T breast it was 67.9 µM; in the assay on HT29 colon, 76.3 µM. For the same molecule, the TGI stood at 43.9 µM with K-562 leukemia, 42.3 µM in the assay on NCI-H460 lung, 66 µM in the assay on SF-268 CNS and 27.3 µM in the assay with SNB-75 CNS.

As for `COc1c(O)c2c3c(c1OC)-c1ccccc1CC3N(S(=O)(=O)c1ccc(C)cc1)CC2` (stereo not given), the GI50 was 1.34 µM in the assay with CCRF-CEM leukemia; 1.9 µM in the assay on HCT-116 colon; 1.18 µM with HL-60(TB) leukemia; 2.77 µM with HOP-62 NSCLC; 1.2 µM in the assay on HS 578T breast; 9.34 µM with HT29 colon. In addition, the GI50 was 0.223 µM in the assay on K-562 leukemia, 1.58 µM in the assay on NCI-H460 lung, 4.56 µM in the assay on SF-268 CNS and 0.933 µM in the assay with SNB-75 CNS. In addition, the TGI is 4.94 µM in the assay with CCRF-CEM leukemia; over 50 µM in the assay with HCT-116 colon; 7.46 µM in the assay with HL-60(TB) leukemia; over 50 µM in the assay with HOP-62 NSCLC; 4.03 µM in the assay with HS 578T breast; 21 µM with HT29 colon. The TGI in the assay on K-562 leukemia is 7.65 µM; in the assay on NCI-H460 lung it was over 50 µM; in the assay with SF-268 CNS, over 50 µM; in the assay on SNB-75 CNS, 3.92 µM.

As to `COc1cc(OC)cc(-c2ccc(-c3ccc(C(=N)N)cn3)s2)c1`, the GI50 was 2.71 µM in the assay on CCRF-CEM leukemia; 1.9 µM in the assay with HCT-116 colon; 2.06 µM with HL-60(TB) leukemia; 1.8 µM in the assay with HOP-62 NSCLC; 1.86 µM in the assay on HS 578T breast; 2.11 µM in the assay on HT29 colon. In addition, the GI50 was 2.22 µM with K-562 leukemia, 1.87 µM in the assay with NCI-H460 lung, 1.73 µM in the assay on SF-268 CNS and 1.44 µM with SNB-75 CNS. The TGI in the assay with CCRF-CEM leukemia stood at 7.29 µM; with HCT-116 colon, 3.64 µM; with HL-60(TB) leukemia, 4.48 µM; in the assay with HOP-62 NSCLC, 3.67 µM; in the assay on HS 578T breast, 3.98 µM; with HT29 colon it was 4.89 µM. Also, the TGI with K-562 leukemia was determined as 6.19 µM; in the assay with NCI-H460 lung, 3.45 µM; in the assay on SF-268 CNS, 3.35 µM; with SNB-75 CNS, 2.86 µM.

Take `O=c1[nH]c2ccc([N+](=O)[O-])c(Cl)c2c2ccccc12`: the TGI with CCRF-CEM leukemia is 24.1 µM; in the assay on HCT-116 colon it was over 100 µM; in the assay on HL-60(TB) leukemia, 16.6 µM; with HOP-62 NSCLC, over 100 µM; in the assay on HS 578T breast it was over 100 µM; in the assay on HT29 colon it was 10.6 µM. Further, the TGI in the assay on K-562 leukemia was over 100 µM; with NCI-H460 lung, 4.47 µM; with SF-268 CNS, 10.6 µM; in the assay on SNB-75 CNS, 56.7 µM.

As for `Fc1ccc(-c2nn3c(COc4ccc(Cl)cc4)nnc3s2)cc1Oc1ccccc1`, the GI50 was 22.4 µM with CCRF-CEM leukemia; 20.6 µM with HCT-116 colon; over 100 µM with HL-60(TB) leukemia; 16.6 µM in the assay with HOP-62 NSCLC; 22.4 µM in the assay on HS 578T breast; over 47.9 µM with HT29 colon. Moreover, the GI50 is 42.1 µM with K-562 leukemia, 23.9 µM with NCI-H460 lung, 20 µM with SF-268 CNS and 61 µM in the assay with SNB-75 CNS. In addition, the TGI with CCRF-CEM leukemia is 74.4 µM; in the assay on HCT-116 colon it was over 52.3 µM; in the assay with HL-60(TB) leukemia, over 100 µM; in the assay with HOP-62 NSCLC, 35.6 µM; in the assay with HS 578T breast it was 61.4 µM; in the assay with HT29 colon, over 74.8 µM. Moreover, the TGI with K-562 leukemia was over 100 µM; in the assay with NCI-H460 lung it was over 54.5 µM; in the assay with SF-268 CNS, 54.1 µM; in the assay on SNB-75 CNS, over 100 µM.

With `COc1ccc(/C=C/C(C)=N/OCC(=O)Nc2ccc(Cl)cc2)cc1`, the GI50 was 2.41 µM in the assay on CCRF-CEM leukemia; 1.99 µM in the assay on HCT-116 colon; 2.55 µM with HL-60(TB) leukemia; 5.06 µM in the assay on HOP-62 NSCLC; 5.85 µM in the assay with HS 578T breast; 3.87 µM in the assay on HT29 colon. Besides, the GI50 is 2.42 µM with K-562 leukemia, 3.1 µM in the assay on NCI-H460 lung, 4.2 µM in the assay on SF-268 CNS and 3.21 µM with SNB-75 CNS. Also, the TGI in the assay with CCRF-CEM leukemia turned out to be 29.9 µM; with HCT-116 colon, 9.39 µM; in the assay with HL-60(TB) leukemia it was 10.5 µM; in the assay on HOP-62 NSCLC, 27.5 µM; with HS 578T breast, 78.5 µM; in the assay with HT29 colon it was 18.2 µM. The TGI with K-562 leukemia came out at 17.2 µM; in the assay on NCI-H460 lung, 16.7 µM; in the assay on SF-268 CNS, 49.4 µM; in the assay on SNB-75 CNS, 32.6 µM.

With `O=c1nc2[nH]c3c(-c4n[nH]c(=O)[nH]c4=O)cccc3c2n[nH]1`, the GI50 in the assay with CCRF-CEM leukemia, in the assay with HCT-116 colon, in the assay on HL-60(TB) leukemia, in the assay with HOP-62 NSCLC, with HS 578T breast and in the assay with HT29 colon was over 100 µM throughout. For the same molecule, the GI50 in the assay on K-562 leukemia, in the assay on NCI-H460 lung, in the assay with SF-268 CNS and with SNB-75 CNS was over 100 µM throughout. Also, the TGI with CCRF-CEM leukemia, in the assay on HCT-116 colon, with HL-60(TB) leukemia, in the assay with HOP-62 NSCLC, with HS 578T breast and in the assay with HT29 colon was over 100 µM in each case. Also, the TGI in the assay with K-562 leukemia, with NCI-H460 lung, in the assay on SF-268 CNS and in the assay with SNB-75 CNS was over 100 µM throughout.
